Here are results for two compounds from publication PMC6356649, “Effect of Pentacyclic Guanidine Alkaloids from the Sponge Monanchora pulchra on Activity of α-Glycosidases from Marine Bacteria” (Marine Drugs, 2019).

Test [1] deals with T1, α-PsGal (recombinant wild-type α-D-galactosidase, GH36) (Pseudoalteromonas sp. KMM 701, UniProt Q19AX0).
T1 construct: recombinant from pET-40b(+) in E. coli Rosetta (DE3); two identical subunits; catalytic Asp451 and Asp516
T1 sequence (Q19AX0 1-710): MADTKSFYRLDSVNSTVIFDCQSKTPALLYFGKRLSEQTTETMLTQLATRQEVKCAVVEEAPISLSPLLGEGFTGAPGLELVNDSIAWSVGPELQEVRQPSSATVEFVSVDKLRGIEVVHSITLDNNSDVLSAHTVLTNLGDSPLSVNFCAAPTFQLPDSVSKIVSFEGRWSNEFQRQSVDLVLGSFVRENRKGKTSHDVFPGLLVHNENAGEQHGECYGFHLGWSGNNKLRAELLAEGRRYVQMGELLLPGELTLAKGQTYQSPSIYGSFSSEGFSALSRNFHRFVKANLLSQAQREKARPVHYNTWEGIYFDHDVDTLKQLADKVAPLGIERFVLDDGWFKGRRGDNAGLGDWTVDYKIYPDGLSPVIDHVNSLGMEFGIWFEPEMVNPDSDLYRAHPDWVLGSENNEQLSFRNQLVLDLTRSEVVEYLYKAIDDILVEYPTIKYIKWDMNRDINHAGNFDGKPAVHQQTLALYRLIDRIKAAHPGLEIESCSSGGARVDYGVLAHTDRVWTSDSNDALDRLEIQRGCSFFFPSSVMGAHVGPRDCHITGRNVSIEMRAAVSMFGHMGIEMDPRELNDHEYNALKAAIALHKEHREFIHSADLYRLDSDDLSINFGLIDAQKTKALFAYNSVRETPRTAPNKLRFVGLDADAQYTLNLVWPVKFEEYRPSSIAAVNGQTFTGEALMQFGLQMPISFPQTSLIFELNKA
Description: p-nitrophenol release at […] nm. The conditions noted are these: 0.05 M sodium phosphate, pH 7.0, 20 °C; Km only implied (3.32 mM stated as ~5 Km). The class given is biochemical.

Test [2] addresses T1, α-PsGal (recombinant wild-type α-D-galactosidase, GH36). Description: inhibition of pNP-α-Gal hydrolysis. Type of test: biochemical. As to conditions: competitive; reaction product; active site; pH 7.0, 20 °C; read-out: decreased the activity on 50%.

`O=[N+]([O-])c1ccc(O[C@H]2O[C@H](CO)[C@H](O)[C@H](O)[C@H]2O)cc1` [4-nitrophenyl-α-D-galactopyranoside]: the “p-nitrophenol release at 400 nm” value in test [1] is listed as “p-nithrophenil galactopyranoside (pNP-α-Gal) for α-PsGal”.
For the compound `OC[C@H]1OC(O)[C@H](O)[C@@H](O)[C@H]1O` (stereo partly drawn) [D-galactose], the IC50 in test [2] was determined as 700 µM.
